Assay results as given in US20170173039A1, “COMPOSITIONS AND METHODS TO TREAT ADDICTION” (YALE UNIVERSITY, priority 2014, published 2017).
Where two headings read alike, the source gives them in different places.

Columns and labels:
[1] = cited from earlier work
[2] = target: CYP3A4 (Homo sapiens, UniProt P08684); conditions: cited from earlier work
[3] = in vivo; cited from earlier work
[4] = in vivo; cited from earlier work; remark: listed apart in the source
[5] = test system: AMPA receptor; conditions: in vitro, rat hippocampal slices; cited from earlier work
[6] = cited from earlier work; remark: listed apart in the source
[7] = test system: AMPA receptor; conditions: animal spinal neurons; cited from earlier work
[8] = cited from earlier work; remark: listed apart in the source
[9] = Effect of naltrexone on alcohol stimulation (BAES); type: in vivo, human; conditions: calculated from Ray et al. (Arch Gen Psychiatry 2007)
Procedure: No human studies have examined perampanel in psychiatric/substance-using populations. We calculated an effect size for naltrexone based on Ray et al. (Arch Gen Psychiatry. 2007; 64(9):1069-77), for the effect of naltrexone on stimulation (BAES) and will extrapolate this effect to perampanel. Based on this calculated effect size (d) of 0.45 (e.g. a moderate effect size), we should be able to show a significant difference between perampanel and placebo groups using a two-sided, […] t-test, with alpha=0.05 and power (1-Beta) of 0.80 with n=21 subjects in each experimental group (total N=42). We will recruit and enter N=50 subjects, in order to complete at least 42.

CYP3A4, sequence (P08684 whole entry): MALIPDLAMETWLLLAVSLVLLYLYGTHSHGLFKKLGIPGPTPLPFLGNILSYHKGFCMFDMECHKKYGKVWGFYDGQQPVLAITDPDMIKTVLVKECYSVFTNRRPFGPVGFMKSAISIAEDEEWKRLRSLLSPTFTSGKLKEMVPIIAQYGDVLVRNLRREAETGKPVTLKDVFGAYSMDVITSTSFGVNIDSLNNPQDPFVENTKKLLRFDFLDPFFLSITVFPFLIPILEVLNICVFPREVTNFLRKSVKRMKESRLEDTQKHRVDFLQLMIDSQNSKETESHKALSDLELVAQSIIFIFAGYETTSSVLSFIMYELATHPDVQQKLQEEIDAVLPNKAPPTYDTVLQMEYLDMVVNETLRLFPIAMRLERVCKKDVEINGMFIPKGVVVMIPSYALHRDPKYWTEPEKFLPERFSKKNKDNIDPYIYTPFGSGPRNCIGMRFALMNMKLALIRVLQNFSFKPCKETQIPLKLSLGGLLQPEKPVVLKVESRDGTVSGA

Row | SMILES | medication related adverse events/side effects ([1]; chronic dosing in epilepsy trials) | tolerability ([1]; human subjects, doses of 8 mg or 12 mg daily) | metabolising enzyme [2] | blood-brain-barrier penetration [3] | bioavailability [4] | pharmacokinetic linearity [4] | selectivity of action on the AMPA receptor [5] | maximum tolerated single oral dose ([6]; healthy human subjects, single oral dose) [mg] | medication related adverse events/side effects ([6]; human, in vivo) | selectivity of action on the AMPA receptor [7] | elimination half-life T1/2 ([8]; healthy volunteers) | absorption in the gastrointestinal system ([8]; orally active) | time to peak plasma concentration (Tmax) ([8]; post-ingestion) | effect size (d) on stimulation (BAES) [9]
1 | N#Cc1ccccc1-c1cc(-c2ccccn2)cn(-c2ccccc2)c1=O [perampanel] | dizziness, somnolence, irritability, headache, fall, and ataxia | well tolerated | primarily metabolized by CYP3A4 | effectively penetrates the blood-brain-barrier | about 100% | linear pharmacokinetics | selective action | – | – | – | – | – | – | –
2 | CC(=O)N1N=C(c2ccc(N)cc2)c2cc3c(cc2C[C@H]1C)OCO3 [talampanel] | – | – | – | good blood-brain-barrier penetration | – | – | – | 100 | dizziness, sedation, and ataxia | selective action | approximately 4 hours | easily absorbed | approximately 2 hours | –
3 | O=C1CC[C@@]2(O)[C@H]3Cc4ccc(O)c5c4[C@@]2(CCN3CC2CC2)[C@H]1O5 [naltrexone] | – | – | – | – | – | – | – | – | – | – | – | – | – | 0.45
